Test results as given in patent publication US11434242B2, “Dopamine-b-hydroxylase inhibitors” (BIAL-PORTELA & Cª, S.A., priority 2017, dated 2022).
Marks after values point to notes of the source that are not given here.

Target: T1, Dopamine beta hydroxylase (Homo sapiens, UniProt P09172)
T1 construct: 125 μl of plasma; tissue Instituto Português do Sangue Transplantação; host or cells: human plasma from healthy donors
T1 sequence (P09172 40-617 limits assumed): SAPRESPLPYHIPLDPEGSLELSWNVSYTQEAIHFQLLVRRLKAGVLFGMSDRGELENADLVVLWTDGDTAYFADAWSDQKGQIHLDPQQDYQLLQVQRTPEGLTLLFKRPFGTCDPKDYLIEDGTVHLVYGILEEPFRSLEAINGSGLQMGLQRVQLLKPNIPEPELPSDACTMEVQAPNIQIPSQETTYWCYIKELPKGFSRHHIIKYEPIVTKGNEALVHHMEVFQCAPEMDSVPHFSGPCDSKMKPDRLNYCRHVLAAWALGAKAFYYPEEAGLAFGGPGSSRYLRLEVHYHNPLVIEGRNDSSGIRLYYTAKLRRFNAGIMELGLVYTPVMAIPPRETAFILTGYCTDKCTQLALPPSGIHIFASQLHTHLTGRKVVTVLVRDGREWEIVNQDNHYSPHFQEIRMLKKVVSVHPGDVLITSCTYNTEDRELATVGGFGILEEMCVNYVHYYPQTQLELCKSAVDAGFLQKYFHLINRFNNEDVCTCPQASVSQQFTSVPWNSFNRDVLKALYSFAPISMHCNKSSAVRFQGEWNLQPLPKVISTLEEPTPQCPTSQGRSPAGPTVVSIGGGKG
Test: Dopamine beta hydroxylase activity in human plasma
Type: biochemical
Method in brief: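 Healthy-donor human plasma pre-incubated 10 min at 37° C with compound at final 10, 100 or 1000 nM in pH 5.0 acetate buffer with ascorbate, fumarate, pargyline, N-ethylmaleimide, catalase and copper sulfate. Tyramine substrate then added for 45 min; octopamine formed was isolated by SCX cartridge, periodate-converted and read at 330 nm; activity given as % control.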

Compound	Plasma (0.01 μM), activity in % of control (inhibitor 0.01 μM)	Plasma (0.1 μM), activity in % of control (inhibitor 0.1 μM)	Plasma (0.01 μM), activity in % of control, re-test (asterisked) (inhibitor 0.01 μM, re-tested under the same experimental conditions, asterisked data believed to be correct)	Plasma (0.1 μM), activity in % of control, re-test (asterisked) (inhibitor 0.1 μM, re-tested under the same experimental conditions, asterisked data believed to be correct)
Cn1c(CC(=O)N2CCS(=O)(=O)CC2)c2n(c1=S)C[C@H](c1c(F)ccc(Br)c1F)C2 [Example 235, (S)-2-(6-(3-bromo-2,6-difluorophenyl)-2-methyl-3-thioxo-2,5,6,7-tetrahydro-3H-pyrrolo[1,2-c]imidazol-1-yl)-1-(1,1-dioxidothiomorpholino)ethan-1-one]	11.4 % of control	1.2 % of control		
CC(C)NC(=O)Cc1c2n(c(=S)n1C)C[C@H](c1c(F)ccc(Cl)c1F)C2 [Example 236, (S)-2-(6-(3-chloro-2,6-difluorophenyl)-2-methyl-3-thioxo-2,5,6,7-tetrahydro-3H-pyrrolo[1,2-c]imidazol-1-yl)-N-isopropylacetamide]	104.2 % of control	51.0 % of control		
Cn1c(CC(=O)N2CCOCC2)c2n(c1=S)C[C@@H](c1c(F)ccc(F)c1F)C2 [Example 237, (R)-2-(2-methyl-3-thioxo-6-(2,3,6-trifluorophenyl)-2,5,6,7-tetrahydro-3H-pyrrolo[1,2-c]imidazol-1-yl)-1-morpholinoethan-1-one]	92.9 % of control	61.6 % of control		
Cn1c(C2(C(=O)NCCS(C)(=O)=O)CC2)c2n(c1=S)C[C@H](c1c(F)ccc(Br)c1F)C2 [Example 238, (S)-1-(6-(3-bromo-2,6-difluorophenyl)-2-methyl-3-thioxo-2,5,6,7-tetrahydro-3H-pyrrolo[1,2-c]imidazol-1-yl)-N-(2-(methylsulfonyl)ethyl)cyclopropane-1-carboxamide]	93.4 % of control	88.5 % of control		
Cn1c(CC(=O)NC2CCS(=O)(=O)CC2)c2n(c1=S)C[C@@H](c1c(F)ccc(F)c1F)C2 [Example 239, (R)—N-(1,1-dioxidotetrahydro-2H-thiopyran-4-yl)-2-(2-methyl-3-thioxo-6-(2,3,6-trifluorophenyl)-2,5,6,7-tetrahydro-3H-pyrrolo[1,2-c]imidazol-1-yl)acetamide]	60.1 % of control	3.9 % of control		
Cn1c(CC(N)=O)c2n(c1=S)C[C@H](c1c(F)ccc(Br)c1F)C2 [Example 240, (S)-2-(6-(3-bromo-2,6-difluorophenyl)-2-methyl-3-thioxo-2,5,6,7-tetrahydro-3H-pyrrolo[1,2-c]imidazol-1-yl)acetamide]	76.1 % of control	39.2 % of control		
Cn1c(CC(=O)N2CCC[C@H]2CO)c2n(c1=S)C[C@H](c1c(F)ccc(Br)c1F)C2 [Example 241, 2-((S)-6-(3-bromo-2,6-difluorophenyl)-2-methyl-3-thioxo-2,5,6,7-tetrahydro-3H-pyrrolo[1,2-c]imidazol-1-yl)-1-((S)-2-(hydroxymethyl)pyrrolidin-1-yl)ethan-1-one]	51.7 % of control	8.9 % of control		
Cn1c(CC(=O)N2CCOCC2)c2n(c1=S)C[C@@H](c1c(F)c(F)cc(F)c1F)C2 [Example 242, (R)-2-(2-methyl-6-(2,3,5,6-tetrafluorophenyl)-3-thioxo-2,5,6,7-tetrahydro-3H-pyrrolo[1,2-c]imidazol-1-yl)-1-morpholinoethan-1-one]	91.5 % of control	53.6 % of control		

Now from value to molecule:

Plasma (0.01 μM), activity in % of control (inhibitor 0.01 μM)	Plasma (0.1 μM), activity in % of control (inhibitor 0.1 μM)	Plasma (0.01 μM), activity in % of control, re-test (asterisked) (inhibitor 0.01 μM, re-tested under the same experimental conditions, asterisked data believed to be correct)	Plasma (0.1 μM), activity in % of control, re-test (asterisked) (inhibitor 0.1 μM, re-tested under the same experimental conditions, asterisked data believed to be correct)	Compound
38.0 % of control	4.4 % of control	87.3* % of control	37.6* % of control	Cn1c(CC(=O)N[C@@H]2CCOC2)c2n(c1=S)C[C@@H](c1c(F)c(F)cc(F)c1F)C2 [Example 243]
83.6 % of control	32.9 % of control			Cn1c(CC(=O)N[C@@H]2CCOC2)c2n(c1=S)C[C@@H](c1c(F)ccc(F)c1F)C2 [Example 244, 2-((R)-2-methyl-3-thioxo-6-(2,3,6-trifluorophenyl)-2,5,6,7-tetrahydro-3H-pyrrolo[1,2-c]imidazol-1-yl)-N—((R)-tetrahydrofuran-3-yl)acetamide]
107.8 % of control	93 % of control			Cn1c(CC(=O)NC2CCCC2)c2n(c1=S)C[C@@H](c1cc(Cl)ccc1F)C2 [Example 245, (R)-2-(6-(5-chloro-2-fluorophenyl)-2-methyl-3-thioxo-2,5,6,7-tetrahydro-3H-pyrrolo[1,2-c]imidazol-1-yl)-N-cyclopentylacetamide]
115.2 % of control	80.3 % of control			Cn1c(CC(=O)N[C@@H]2CCOC2)c2n(c1=S)C[C@@H](c1cc(Cl)ccc1F)C2 [Example 246, 2-((R)-6-(5-chloro-2-fluorophenyl)-2-methyl-3-thioxo-2,5,6,7-tetrahydro-3H-pyrrolo[1,2-c]imidazol-1-yl)-N—((R)-tetrahydrofuran-3-yl)acetamide]
81.7 % of control	35.9 % of control			COC[C@@H]1CCCN1C(=O)Cc1c2n(c(=S)n1C)C[C@@H](c1c(F)ccc(F)c1F)C2 [Example 247, 1-((S)-2-(methoxymethyl)pyrrolidin-1-yl)-2-((R)-2-methyl-3-thioxo-6-(2,3,6-trifluorophenyl)-2,5,6,7-tetrahydro-3H-pyrrolo[1,2-c]imidazol-1-yl)ethan-1-one]
98.2 % of control	51.8 % of control			Cn1c(CC(=O)N2CCC[C@H]2C(F)(F)F)c2n(c1=S)C[C@@H](c1c(F)ccc(F)c1F)C2 [Example 248, 2-((R)-2-methyl-3-thioxo-6-(2,3,6-trifluorophenyl)-2,5,6,7-tetrahydro-3H-pyrrolo[1,2-c]imidazol-1-yl)-1-((S)-2-(trifluoromethyl)pyrrolidin-1-yl)ethan-1-one]
96.0 % of control	40.9 % of control			Cn1c(CC(N)=O)c2n(c1=S)C[C@H](c1c(F)ccc(Cl)c1F)C2 [Example 249, (S)-2-(6-(3-chloro-2,6-difluorophenyl)-2-methyl-3-thioxo-2,5,6,7-tetrahydro-3H-pyrrolo[1,2-c]imidazol-1-yl)acetamide]
46.1 % of control	7.3 % of control			Cn1c(CC(=O)N[C@@H]2CCOC2)c2n(c1=S)C[C@H](c1c(F)ccc(Cl)c1F)C2 [Example 250, 2-((S)-6-(3-chloro-2,6-difluorophenyl)-2-methyl-3-thioxo-2,5,6,7-tetrahydro-3H-pyrrolo[1,2-c]imidazol-1-yl)-N—((R)-tetrahydrofuran-3-yl)acetamide]
80.0 % of control	36.0 % of control			Cn1c(CC(=O)N[C@@H]2CCOC2)c2n(c1=S)C[C@H](c1cc(Cl)ccc1F)C2 [Example 251, 2-((S)-6-(5-chloro-2-fluorophenyl)-2-methyl-3-thioxo-2,5,6,7-tetrahydro-3H-pyrrolo[1,2-c]imidazol-1-yl)-N—((R)-tetrahydrofuran-3-yl)acetamide]
